This test deals with HCMV engineered virus RC256. Kind of test: microbe, parasite or virus in culture. The format is cell-based, human cytomegalovirus. As to conditions: Human betaherpesvirus 5, Fibroblast, read-out: Antiviral Activity RC256, first value (EC50).
As to `CCN(Cc1ccccc1)C(=O)[C@H](Cc1ccccc1)Nc1nc2ccc(CNC(=O)OC(C)(C)C)c(C)c2c(=O)o1` [Example 7l, 1,1-Dimethylethyl[[2-[[2-[ethyl(phenylmethyl)amino]-2-oxo-1S-(phenylmethyl)ethyl]amino]-5-methyl-4-oxo-4H-3,1-benzoxazin-6-yl]methyl]carbamate], the concentration giving a half-maximal response (EC50) – broadly, the midpoint of the concentration-response curve – was found to be 13 µM.

As to `COc1ccc(C[C@H](Nc2nc3ccc(CNC(=O)OC(C)(C)C)c(C)c3c(=O)o2)C(=O)N(C)Cc2ccccc2)cc1` [Example 7i, 1,1-Dimethylethyl[[2-[[1S-[(4-methoxyphenyl)methyl]-2-[methyl(phenylmethyl)amino]-2-oxoethyl]amino]-5-methyl-4-oxo-4H-3,1-benzoxazin-6-yl]methyl]carbamate], the concentration for a half-maximal effect (EC50) turned out to be 30 µM.

In the case of `COc1ccc(C[C@H](Nc2nc3ccc(N(C)C)c(C)c3c(=O)o2)C(=O)N(C)Cc2ccccc2)cc1` [Example 16a, αS-[[6-(Dimethylamino)-5-methyl-4-oxo-4H-3,1-benzoxazin-2-yl]amino]-4-methoxy-N-methyl-N-(phenylmethyl)benzenepropanamide], the EC50 is 15 µM.

With `Cc1cccc2nc(N[C@H](C(=O)OC(C)(C)C)c3ccccc3)oc(=O)c12` [Example 1o, N-(5-Methyl-4-oxo-4H-3,1-benzoxazin-2-yl)-L-phenylglycine, 1,1-dimethylethyl ester], the EC50 worked out at 10 µM.

As to `Cc1c(NC(=O)N[C@H](C)c2ccccc2)ccc2nc(N[C@H](C)c3ccccc3)oc(=O)c12` [Example 12c, ^6-[[[[(1R)-Phenylethyl]amino]carbonyl]amino]-5-methyl-2-[[(1R)-phenylethyl]amino]-4H-3,1-benzoxazin-4-one], the EC50 amounted to 17 µM.

In the case of `COc1ccc(C[C@H](Nc2nc3ccc(CNC(=O)OCc4ccccc4)c(C)c3c(=O)o2)C(=O)N(C)Cc2ccccc2)cc1` [Example 9i, Phenylmethyl[[2-[[1S-[(4-methoxyphenyl)methyl]-2-[methyl(phenylmethyl)amino]-2-oxcethyl]amino]-5-methyl-4-oxo-4H-3,1-benzoxazin-6-yl]methyl]carbamate], the EC50 was determined as 14 µM.

For the compound `COc1ccc(C[C@H](Nc2nc3ccc(CNC(=O)OCCN(C)C)c(C)c3c(=O)o2)C(=O)N(C)Cc2ccccc2)cc1` [Example 18c, 2-(Dimethylamino)ethyl[[2-[[1S-[(4-methoxyphenyl)methyl]-2-[methyl(phenylmethyl)amino]-2-oxoethyl]amino]-5-methyl-4-oxo-3,1-benzoxazin-6-yl]methyl]carbamate], the EC50 amounted to 15 µM.

As to `COC(=O)[C@H](Cc1ccccc1)Nc1nc2ccc(NC(=O)OC(C)(C)C)c(C)c2c(=O)o1` [Example 6a, N-[6-[[(1,1-Dimethylethoxy]carbonyl]amino]-5-methyl-4-oxo-4H-3,1-benzoxazin-2-yl]-L-phenylalanine, methyl ester], the EC50 came to 71 µM.

As to `COc1ccc(C[C@H](Nc2nc3ccc(NC(=O)OC(C)(C)C)c(C)c3c(=O)o2)C(=O)N2CCOCC2)cc1` [Example 6i, N-[6-[[(1,1-Dimethylethoxy)carbonyl]amino]-5-methyl-4-oxo-4H-3,1-benzoxazin-2-yl]-O-methyl-L-tyrosine, morpholineamide], the EC50 was found to be 48 µM.

On to `Cc1c(CNC(=O)CCc2ccccc2)ccc2nc(N[C@@H](Cc3ccccc3)C(=O)N(C)Cc3ccccc3)oc(=O)c12` [Example 9w, N-Methyl-αS-[[5-methyl-6-[[(1-oxo-3-phenylpropyl)amino]-methyl]-4-oxo-4H-3,1-benzoxazin-2-yl]amino]-N-(phenylmethyl)benzenepropanamide], for which the EC50 turned out to be 13 µM.

Regarding `COC(=O)[C@H](Cc1ccc(I)cc1)Nc1nc2ccc(NC(=O)OC(C)(C)C)c(C)c2c(=O)o1` [Example 6t, N-[6-[[(1,1-Dimethylethoxy)carbonyl]amino]-5-methyl-4-oxo-4H-3,1-benzoxazin-2-yl]-4-iodo-L-phenylalanine, methyl ester], the EC50 came out at 17 µM.

Turning to `COc1ccc(C[C@H](Nc2nc3ccc(CNC(=O)CCc4ccccc4)c(C)c3c(=O)o2)C(=O)N(C)Cc2ccccc2)cc1` [Example 9u, 4-Methoxy-N-methyl-αS-[[5-methyl-6-[[(1-oxo-3-phenylpropyl)amino]methyl]-4-oxo-4H-3,1-benzoxazin-2-yl]amino]-N-(phenylmethyl)benzenepropanamide], the EC50 is 18 µM.

`COc1ccc(C[C@H](Nc2nc3ccc(NC(=O)OC(C)(C)C)c(C)c3c(=O)o2)C(=O)NCc2ccccn2)cc1` [Example 6gg, 1,1-Dimethylethyl[2-[[1S-[(4-methoxphenyl)methyl]-2-oxo-2-[[(2-pyridinyl)methyl]amino]ethyl]amino]-5-methyl-4-oxo-4H-3,1-benzoxazin-6-yl]carbamate]: the half-maximal effective concentration (EC50) is 6.5 µM.

Take `COc1ccc(C[C@H](Nc2nc3ccc(CNC(=O)CCc4cccnc4)c(C)c3c(=O)o2)C(=O)N(C)Cc2ccccc2)cc1` [Example 9d, N-[[2-[[1S-[(4-Methoxyphenyl)methyl]-2-[methyl(phenylmethyl)amino]-2-oxoethyl]amino]-5-methyl-4-oxo-4H-3,1-benzoxazin-6-yl]methyl]pyridine-3-propanamide]: the EC50 was found to be 41 µM.

With `Cc1c(CNC(=O)OC(C)(C)C)ccc2nc(N[C@@H](Cc3ccccc3)C(=O)N(C)Cc3cccnc3)oc(=O)c12` [Example 7s, 1,1-Dimethylethyl[[5-methyl-2-[[2-[methyl[(3-pyridinyl)methyl]amino]-1S-(phenylmethyl)-2-oxoethyl]amino]4-oxo-4H-3,1-benzoxazin-6-yl]methyl]carbamate], the EC50 worked out at 16 µM.

With `COC(=O)[C@H](Cc1ccccc1)Nc1nc2ccc(NS(=O)(=O)c3ccccc3)c(C)c2c(=O)o1` [Example 13], the half-maximal effective concentration (EC50) is 60 µM.

Regarding `COc1ccc(C[C@H](Nc2nc3ccc(CNC(=O)NCc4ccncc4)c(C)c3c(=O)o2)C(=O)N(C)Cc2ccccc2)cc1` [Example 9e, 4-Methoxy-N-methyl-αS-[[5-methyl-4-oxo-6-[[[[[(4-pyridinyl)methyl]amino]carbonyl]amino]methyl]-4H-3,1-benzoxazin-2-yl]amino]-N-(phenylmethyl)benzenepropanamide], the EC50 came to 35 µM.

For the compound `Cc1cccc2nc(N[C@@H](CCCCNC(=O)OCc3ccccc3)C(=O)OC(C)(C)C)oc(=O)c12` [Example 1i, N^α-(5-Methyl-4-oxo-4H-3,1-benzoxazin-2-yl)-N^ε-[(phenylmethoxy)carbonyl)-L-lysine, 1,1-dimethylethyl ester], the EC50 came to 9 µM.

With `COc1ccc(C[C@H](Nc2nc3ccc(CNC(=O)OCc4cccnc4)c(C)c3c(=O)o2)C(=O)N(C)Cc2ccccc2)cc1` [Example 18, 3-Pyridinylmethyl[[2-[[1S-[(4-methoxyphenyl)methyl]-2-[methyl(phenylmethyl)amino]-2-oxoethyl]amino]-5-methyl-4-oxo-4H-3,1-benzoxazin-6-yl]methyl]carbamate], the EC50 turned out to be 14 µM.

As to `COC[C@H](Cc1ccccc1)Nc1nc2cccc(C)c2c(=O)o1` [Example 1p, 2-[[2-Methoxy-(1S)-(1-phenylmethyl)ethyl]amino]-5-methyl-4H-3,1-benzoxazin-4-one], the EC50 amounted to 38 µM.

For `Cc1cccc2nc(N[C@@H](C)C(=O)OC(C)(C)C)oc(=O)c12` [Example 1, N-(5-Methyl-4-oxo-4H-3,1-benzoxazin-2-yl)-L-alanine, tert-butyl Ester], the EC50 is 100 µM.

On to `CC(=O)NCc1ccc2nc(N[C@@H](Cc3ccccc3)C(=O)N(C)Cc3ccccc3)oc(=O)c2c1C` [Example 9x, αS-[[6-[(Acetylamino)methyl]-5-methyl-4-oxo-4H-3,1-benzoxazin-2-yl]amino]-N-methyl-N-(phenylmethyl)benzenepropanamide], for which the EC50 came to 16 µM.

In the case of `COc1ccc(C[C@H](Nc2nc3ccc(CNC(=O)OC(C)(C)C)c(C)c3c(=O)o2)C(=O)N2CCOCC2)cc1` [Example 7h, 1,1-Dimethylethyl[[2-[[1S-[(4-methoxyphenyl)methyl]-2-(4-morpholinyl)-2-oxoethyl]amino]-5-methyl-4-oxo-4H-3,1-benzoxazin-6-yl]methyl]carbamate], the EC50 amounted to 16 µM.

On to `COC(=O)[C@H](C)Nc1nc2ccc(NS(=O)(=O)c3ccccc3)c(C)c2c(=O)o1` [Example 13a], for which the EC50 stood at 60 µM.

In the case of `Cc1c(CNC(=O)OCc2cccnc2)ccc2nc(N[C@@H](Cc3ccccc3)C(=O)N(C)Cc3ccccc3)oc(=O)c12` [Example 18e, 3-Pyridinylmethyl[[5-methyl-2-[[2-[methyl(phenylmethyl)amino]-2-oxo-1S-(phenylmethyl)ethyl]amino]-4-oxo-4H-3,1-benzoxazin-6-yl]methyl]carbamate], the EC50 turned out to be 7 µM.

As to `Cc1c(CNC(=O)OCCN2CCOCC2)ccc2nc(N[C@@H](Cc3ccccc3)C(=O)N(C)Cc3ccccc3)oc(=O)c12` [Example 18h], the EC50 was determined as 11 µM.

As to `COC(=O)[C@H](Cc1c[nH]c2ccccc12)Nc1nc2cccc(C)c2c(=O)o1` [Example 1m, N-(5-Methyl-4-oxo-4H-3,1-benzoxazin-2-yl)-L-tryptophan, methyl ester], the concentration giving a half-maximal response (EC50) was 56 µM.

Take `Cc1c(NC(=O)OC(C)(C)C)ccc2nc(N[C@H](C)c3ccccc3)oc(=O)c12` [Example 6n, 6-[[(1,1-Dimethylethoxy)carbonyl]amino]-5-methyl-2-[[(1R)-phenylethyl]amino]-4H-3,1-benzoxazin-4-one]: the EC50 amounted to 10 µM.

As for `COc1ccc(C[C@H](Nc2nc3ccc(CNC(=O)CN4CCCC4)c(C)c3c(=O)o2)C(=O)N(C)Cc2ccccc2)cc1` [Example 9c, N-[[2-[[1S-[(4-Methoxyphenyl)methyl]-2-[methyl(phenylmethyl)amino]-2-oxoethyl]amino]-5-methyl-4-oxo-4H-3,1-benzoxazin-6-yl]methyl]pyrrolidine-1-acetamide], the EC50 turned out to be 9 µM.

Consider `COc1ccc(C[C@H](Nc2nc3ccc(N)c(C)c3c(=O)o2)C(=O)N(C)Cc2ccccc2)cc1` [Example 8h, αS-[(6-amino-5-methyl-4-oxo-4H-3,1-benzoxazin-2-yl)amino]-N-methyl-4-methoxy-N-(phenylmethyl)benzenepropanamide], for which the EC50 came out at 100 µM.

(Values after US6683077B2, “2-Amino-benzoxazinones for the treatment of viral infections” (G.D. Searle & Co., priority 1996, dated 2004).)
